Measurements taken from US20110166128A1, “Diaryldiazepine Prodrugs for the Treatment of Neurological and Psychological Disorders” (priority 2010, published 2011).

Test: physchem
From the text: At pH 4 and 5, 0.1 M citrate buffers were used, while for pH 6, 7 and 8 a set of 0.1M phosphate buffers were used. Each buffer also contained 0.2 M NaCl. No cosolvents or other potentially solubilizing components were included. Buffer preparations were subdivided in order to individually test the solubility of only one material in a given buffer sample.

## CCCCCCCCCCCCC(C)(C)C(=O)OC[N+]1(C)CCN(C2=Nc3ccccc3Nc3sc(C)cc32)CC1.[I-] [Compound 18, 1-(((2,2-dimethyltetradecanoyl)oxy)methyl)-1-methyl-4-(2-methyl-10H-benzo[b]thieno[2,3-e][1,4]diazepin-4-yl)piperazin-1-ium iodide]
  variation in solubility across the pH range studied: less than 2 fold
pH 4, aqueous buffer, thermodynamic from solid
  solubility: 0.1 to 0.2 ng/mL
